Test [1] has as its target T1, Cav2.3 (Homo sapiens, UniProt Q15878). The experiment in a line: Human Cav2.3 channel calcium-influx assay. The note with it: HEK-293 T-Rex/Kir2.1/Cav2.3e-β4-α2δ1 cells, Fluo8 fluorescence, without pluronic acid; read-out: Cav2.3 (pIC50) (converted). Type of test: cell-based. In a few lines:
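Doxycycline-induced HEK-293 T-Rex/Kir2.1 clone stably expressing Cav2.3e with β4-α2δ1, loaded with Fluo8 NW; compounds (8 points from 30 μM, half-log, 0.3% DMSO) preincubated 3 min at RT. Depolarized with 20 mM KCl/2 mM CaCl2; peak-minus-baseline fluorescence over 130 s normalized to neutral and inhibitor controls as % activity.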
Target sequence in this assay (Q15878 1-747 limits assumed): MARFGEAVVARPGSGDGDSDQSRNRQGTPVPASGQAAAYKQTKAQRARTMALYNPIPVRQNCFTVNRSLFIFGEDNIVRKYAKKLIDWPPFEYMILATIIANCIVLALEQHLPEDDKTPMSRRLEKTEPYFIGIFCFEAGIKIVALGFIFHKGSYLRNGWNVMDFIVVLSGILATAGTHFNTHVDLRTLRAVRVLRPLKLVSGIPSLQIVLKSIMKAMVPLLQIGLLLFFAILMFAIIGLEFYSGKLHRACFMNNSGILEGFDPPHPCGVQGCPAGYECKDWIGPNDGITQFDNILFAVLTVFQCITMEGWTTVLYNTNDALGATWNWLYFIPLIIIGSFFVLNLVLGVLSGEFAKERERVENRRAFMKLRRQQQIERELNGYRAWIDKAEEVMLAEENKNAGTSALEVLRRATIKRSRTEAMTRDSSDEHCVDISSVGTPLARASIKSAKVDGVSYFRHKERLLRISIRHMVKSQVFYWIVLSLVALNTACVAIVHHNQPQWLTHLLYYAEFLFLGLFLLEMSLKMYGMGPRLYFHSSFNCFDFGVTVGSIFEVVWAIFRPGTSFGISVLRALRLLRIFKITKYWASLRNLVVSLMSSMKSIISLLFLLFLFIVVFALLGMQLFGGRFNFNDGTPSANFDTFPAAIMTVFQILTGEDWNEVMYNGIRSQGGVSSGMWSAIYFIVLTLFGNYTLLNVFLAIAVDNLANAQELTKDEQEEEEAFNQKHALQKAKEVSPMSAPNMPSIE
Target sequence in this assay (Q15878 1126-2313 limits assumed): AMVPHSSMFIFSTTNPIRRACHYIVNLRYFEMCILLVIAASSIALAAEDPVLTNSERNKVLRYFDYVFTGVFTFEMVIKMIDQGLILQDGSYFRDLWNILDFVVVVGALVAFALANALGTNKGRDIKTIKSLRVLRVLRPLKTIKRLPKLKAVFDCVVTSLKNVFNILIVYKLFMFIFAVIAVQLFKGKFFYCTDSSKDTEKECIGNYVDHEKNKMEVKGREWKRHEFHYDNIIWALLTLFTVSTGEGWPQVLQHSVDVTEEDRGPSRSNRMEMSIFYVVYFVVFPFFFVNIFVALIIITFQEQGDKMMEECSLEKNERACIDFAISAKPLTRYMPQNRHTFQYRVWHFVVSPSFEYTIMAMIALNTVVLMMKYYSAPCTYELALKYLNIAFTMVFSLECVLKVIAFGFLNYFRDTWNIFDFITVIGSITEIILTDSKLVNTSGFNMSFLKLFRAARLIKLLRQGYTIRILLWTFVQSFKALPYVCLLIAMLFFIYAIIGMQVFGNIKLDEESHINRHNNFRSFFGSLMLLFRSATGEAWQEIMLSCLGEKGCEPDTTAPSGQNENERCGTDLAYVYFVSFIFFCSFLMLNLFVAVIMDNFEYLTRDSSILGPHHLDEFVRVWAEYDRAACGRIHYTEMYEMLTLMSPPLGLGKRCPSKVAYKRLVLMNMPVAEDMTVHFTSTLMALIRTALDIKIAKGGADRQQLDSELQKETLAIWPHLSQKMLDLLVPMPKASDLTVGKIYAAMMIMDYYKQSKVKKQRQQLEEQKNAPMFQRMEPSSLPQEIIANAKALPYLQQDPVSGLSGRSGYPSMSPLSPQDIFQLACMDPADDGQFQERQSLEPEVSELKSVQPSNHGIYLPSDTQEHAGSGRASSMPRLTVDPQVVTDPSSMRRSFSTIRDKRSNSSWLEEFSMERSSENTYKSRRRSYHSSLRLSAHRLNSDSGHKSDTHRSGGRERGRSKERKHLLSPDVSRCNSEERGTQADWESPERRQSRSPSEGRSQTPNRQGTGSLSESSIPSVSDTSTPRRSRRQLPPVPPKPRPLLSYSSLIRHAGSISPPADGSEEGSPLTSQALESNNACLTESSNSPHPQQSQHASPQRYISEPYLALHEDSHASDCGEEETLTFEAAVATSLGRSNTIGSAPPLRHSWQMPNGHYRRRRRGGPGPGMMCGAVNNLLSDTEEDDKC

Test [2] concerns the target T1, Cav2.3. As to the kind of experiment: Whole-cell patch clamp assay (QPatch 16X). Type of test: cell-based. Conditions: whole-cell voltage clamp, HEK-293 T-Rex/Kir2.1/Cav2.3e-β4-α2δ1 cells, room temperature; read-out: Cav2.3 (pIC50) (converted). Here is the method:
HEK-293 T-Rex/Kir2.1/Cav2.3e-β4-α2δ1 cells were seeded 96 hours before experiment and doxycycline at 0.2 μg/mL was added 24 hours before experiment. Just before the experiments cells were washed twice with D-PBS w/o Ca2+/Mg2+ and gently detached from the flask with Detachin. Cells were then re-suspended in the suspension solution (25 mL EX-CELL ACF CHO medium; 0.25 mL of 100× Penicillin/Streptomycin) and placed on the Automated Patch-clamp platform (QPatch 16X).
Standard whole-cell voltage clamp experiments were performed at room temperature using the single hole technology and the following intracellular and extracellular solutions (ICS and ECS, respectively) were used. ICS (mM): CsF 60, CsCl 50, NaCl 10, EGTA 20, BAPTA 5, HEPES 10, NaGTP 0.3, MgATP 5 (pH 7.2; ECS (mM): NMDG-Cl 120, BaCl2 20, HEPES 10, EGTA 7 (pH 7.4). After establishment of the seal and the passage in the whole-cell configuration, the Cav2.3 dependent current was evoked by challenging the cells with the following voltage protocol: the plasma membrane was held at −80 mV then a 50 ms-long depolarizing pulse at 0 mV, followed by a 50 ms-long hyperpolarizing pulse at −100 mV were applied and finally the plasma membrane was held back to −80 mV. This voltage protocol was applied every 10 seconds. Cav2.3 dependent current was first measured in control condition (vehicle, 0.1% DMSO), in the presence of increasing concentration of the compound under investigation and finally SNX 482 was added to fully block any R-type Cav2.3 dependent current.
For data collection, the Sophion proprietary software was used while the analysis was performed off-line using Excel and GraphPad Prism. The inward current (Area Under Curve) measured during each depolarizing pulse was normalized to cell membrane capacitance (Cm) to obtain the average inward current density in each condition (control, compound under investigation and SNX 482). Then, the inhibitory effect of the compound under investigation was evaluated as % of the remaining inward current, normalized to the internal control. […] All data were expressed as mean±S.E
Target sequence in this assay (Q15878 1-747 limits assumed): as the sequence (Q15878 1-747 limits assumed) above
Target sequence in this assay (Q15878 1126-1966 limits assumed): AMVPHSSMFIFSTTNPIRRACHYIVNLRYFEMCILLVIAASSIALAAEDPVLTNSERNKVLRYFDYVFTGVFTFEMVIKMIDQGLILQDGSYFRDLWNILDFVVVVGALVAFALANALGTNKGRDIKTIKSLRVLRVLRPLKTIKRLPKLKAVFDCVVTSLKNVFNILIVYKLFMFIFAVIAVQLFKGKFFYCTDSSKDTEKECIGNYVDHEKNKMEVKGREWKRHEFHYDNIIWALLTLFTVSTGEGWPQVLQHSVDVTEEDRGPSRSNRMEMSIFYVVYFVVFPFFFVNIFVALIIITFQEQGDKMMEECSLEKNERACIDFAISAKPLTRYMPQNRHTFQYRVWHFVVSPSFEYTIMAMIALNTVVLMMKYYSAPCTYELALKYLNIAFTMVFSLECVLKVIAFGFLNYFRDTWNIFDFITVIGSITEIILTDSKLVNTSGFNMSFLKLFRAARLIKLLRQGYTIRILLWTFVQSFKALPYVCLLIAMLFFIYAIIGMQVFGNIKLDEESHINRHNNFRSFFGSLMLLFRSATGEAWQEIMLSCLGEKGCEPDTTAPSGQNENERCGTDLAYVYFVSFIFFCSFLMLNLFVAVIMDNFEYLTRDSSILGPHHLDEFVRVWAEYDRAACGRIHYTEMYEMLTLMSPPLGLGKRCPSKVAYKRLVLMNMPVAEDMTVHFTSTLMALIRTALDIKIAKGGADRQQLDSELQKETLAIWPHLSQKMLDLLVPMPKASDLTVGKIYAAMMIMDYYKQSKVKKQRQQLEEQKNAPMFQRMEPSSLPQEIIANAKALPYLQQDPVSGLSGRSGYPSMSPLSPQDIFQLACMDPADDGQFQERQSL
A general note: The patch-clamp technique gives a direct electrical read-out from membranes.

Regarding `CC(C)C(=O)N1CCc2ccc(S(=O)(=O)N3CC4(CCC4)CC3C)cc2C1` (stereo not drawn) [Example 30, 2-Methyl-1-(7-((7-methyl-6-azaspiro[3.4]octan-6-yl)sulfonyl)-3,4-dihydroisoquinolin-2(1H)-yl)propan-1-one], the results for the IC50 on Cav2.3 [1] and on Cav2.3 [2] were 912 nM and 1700 nM, respectively.
The like results for `CCC1CC2(CCC2)CN1S(=O)(=O)c1ccc2c(c1)CN(C(=O)C(F)(F)F)CC2` (stereo not drawn) [Example 33, 1-(7-((7-Ethyl-6-azaspiro[3.4]octan-6-yl)sulfonyl)-3,4-dihydroisoquinolin-2(1H)-yl)-2,2,2-trifluoroethan-1-one] were, in that order, 1860 nM and 2820 nM.
For the compound `CCOC(=O)N1CCc2ccc(S(=O)(=O)N3CC4(CCC4)CC3C)cc2C1` (stereo not drawn) [Example 22, Ethyl 7-((7-methyl-6-azaspiro[3.4]octan-6-yl)sulfonyl)-3,4-dihydroisoquinoline-2(1H)-carboxylate], the results for the IC50 at Cav2.3 [1] and on Cav2.3 [2] were 741 nM and 759 nM, respectively.
The like results for `CC(C)C(=O)N1CCc2ccc(S(=O)(=O)N3CC4(CCC4)CC3C)cc2C1` (single isomer, unassigned) [Example 32, 2-methyl-1-(7-((7-methyl-6-azaspiro[3.4]octan-6-yl)sulfonyl)-3,4-dihydroisoquinolin-2(1H)-yl)propan-1-one] were, in that order, 1580 nM and 2340 nM.
With `CC1CC2(CCC2)CN1S(=O)(=O)c1ccc2c(c1)CN(C(=O)Cc1ccccc1)CC2` (stereo not drawn) [Example 21, 1-(7-((7-Methyl-6-azaspiro[3.4]octan-6-yl)sulfonyl)-3,4-dihydroisoquinolin-2(1H)-yl)-2-phenylethan-1-one], the values for the IC50 on Cav2.3 [1] and on Cav2.3 [2] were 955 nM and 933 nM, respectively.
For `CC(C)C(=O)N1CCc2ccc(S(=O)(=O)N3CC4(CCCC4)CC3C)cc2C1` (stereo not drawn) [Example 100, 2-Methyl-1-(7-((3-methyl-2-azaspiro[4.4]nonan-2-yl)sulfonyl)-3,4-dihydroisoquinolin-2(1H)-yl)propan-1-one], the IC50 on Cav2.3 [1] was 708 nM; on Cav2.3 [2], 1170 nM.
The like results for `CCC1CC2(CCC2)CN1S(=O)(=O)c1ccc2nc(C)sc2c1` (stereo not drawn) [Example 1, 6-((7-Ethyl-6-azaspiro[3.4]octan-6-yl)sulfonyl)-2-methylbenzo[d]thiazole] were, in that order, 1410 nM and 2820 nM.
In the same order, the values of `CCC1CC2(CCC2)CN1S(=O)(=O)c1cccs1` (single isomer, unassigned) [Example 71, 7-ethyl-6-(thiophen-2-ylsulfonyl)-6-azaspiro[3.4]octane] are 1170 nM and 1580 nM.
`CC1CC2(CCC2)CN1S(=O)(=O)c1ccc2c(c1)CN(C(=O)c1ccccc1)CC2` (single isomer, unassigned) [Example 28, (7-((7-methyl-6-azaspiro[3.4]octan-6-yl)sulfonyl)-3,4-dihydroisoquinolin-2(1H)-yl)(phenyl)methanone]: the IC50 at Cav2.3 [1] is 1510 nM; on Cav2.3 [2], 1700 nM.
For the compound `CC(C)C(=O)N1CCc2ccc(S(=O)(=O)N3CC4(CCC4)CC3C)cc2C1` (single isomer, unassigned) [Example 31, 2-Methyl-1-(7-((7-methyl-6-azaspiro[3.4]octan-6-yl)sulfonyl)-3,4-dihydroisoquinolin-2(1H)-yl)propan-1-one], the results for the IC50 on Cav2.3 [1] and on Cav2.3 [2] were 646 nM and 4070 nM, respectively.
In the case of `CC1CC2(CCC2)CN1S(=O)(=O)c1cccs1` (single isomer, unassigned) [Example 104, 7-methyl-6-(thiophen-2-ylsulfonyl)-6-azaspiro[3.4]octane], the IC50 on Cav2.3 [1] is 1410 nM; on Cav2.3 [2], 3720 nM.
As for `CCOC(=O)N1CCc2ccc(S(=O)(=O)N3CC4(CCC4)CC3C)cc2C1` (single isomer, unassigned) [Example 23, Ethyl 7-((7-methyl-6-azaspiro[3.4]octan-6-yl)sulfonyl)-3,4-dihydroisoquinoline-2(1H)-carboxylate], the IC50 on Cav2.3 [1] was 501 nM; on Cav2.3 [2], 832 nM.

For the origin of these results see patent US20250101003A1, “SPIROCYCLIC CAV2.3 ANTAGONISTS” (LARIO THERAPEUTICS LIMITED, priority 2021, published 2025).
